What was measured:
Format in all cases: cell-based, mouse
Fxr = biological target: T1, Fxr (Homo sapiens, UniProt Q96RI1); test: Fxr luciferase reporter assay in SN4741 neural cells; details: 24 h
T1 construct: expressed in transfected cells; host or cells: SN4741 mouse neuronal cell line
T1 sequence (Q96RI1 1-486): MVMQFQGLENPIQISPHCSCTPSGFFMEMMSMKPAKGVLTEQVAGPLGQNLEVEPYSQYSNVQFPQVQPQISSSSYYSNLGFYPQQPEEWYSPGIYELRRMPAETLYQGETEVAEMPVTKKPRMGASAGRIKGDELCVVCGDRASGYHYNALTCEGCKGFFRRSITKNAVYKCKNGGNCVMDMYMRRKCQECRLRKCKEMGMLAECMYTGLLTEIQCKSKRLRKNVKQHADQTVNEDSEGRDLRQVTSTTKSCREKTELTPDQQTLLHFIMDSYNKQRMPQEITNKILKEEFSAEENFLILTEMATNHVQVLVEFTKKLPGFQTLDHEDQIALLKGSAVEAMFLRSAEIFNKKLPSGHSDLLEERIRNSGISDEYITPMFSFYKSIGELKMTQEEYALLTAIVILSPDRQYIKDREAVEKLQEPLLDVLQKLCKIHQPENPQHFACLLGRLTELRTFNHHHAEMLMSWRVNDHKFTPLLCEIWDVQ
Method: (§1) Luciferase Reporter Assay. The ability of oxysterols and their acidic metabolites to activate several nuclear receptors i.e. Lxrα and β, Fxr, Vdr, Nurr1 was tested in luciferase assays. Transient transfection studies were performed in the mouse neuronal cell line SN4741. This cell line was selected as the oxysterols and acidic metabolites tested were initially identified in CSF. Cells were plated in 24-well plates ([…] cells/well) 24 hr before transfection and transfected with 1 μg of plasmid DNA/well complexed with 2 μL of Lipofectarnine 2000 (Invitrogen), Cells were transfected with 400 ng of a Lxr-, Fxr-, Vdr- or Nurr1-responsive luciferase reporter construct, and 200 ng of Lxrα, Lxrβ, Fxr, Vdr or Nurr1. A reporter gene expressing the Renilla luciferase (pRL-TK, Promega) was co-transfected in all experiments as an internal control for normalization of transfection efficiency. After a 12 h incubation, the lipid/DNA mix was replaced with fresh 2.5% serum medium containing vehicle or appropriate ligand (10 μM), as specified in each experiment. […] Luciferase activities were assayed 24 h later using the Dual-Luciferase Reporter Assay System (Promega), following the manufacturer's protocol.

[1] = tested on: Nur-related factor 1 (Nurr1)/retinoid X receptor (Rxr) heterodimers; test: DR5 element luciferase reporter assay (Nurr1/Rxr) in SN4741 neural cells; details: 10 μM
Description: Luciferase Reporter Assay.

Vdr = biological target: T2, Vdr (Homo sapiens, UniProt P11473); test: Vdr luciferase reporter assay in SN4741 neural cells; details: 10 μM
T2 sequence (P11473 1-427): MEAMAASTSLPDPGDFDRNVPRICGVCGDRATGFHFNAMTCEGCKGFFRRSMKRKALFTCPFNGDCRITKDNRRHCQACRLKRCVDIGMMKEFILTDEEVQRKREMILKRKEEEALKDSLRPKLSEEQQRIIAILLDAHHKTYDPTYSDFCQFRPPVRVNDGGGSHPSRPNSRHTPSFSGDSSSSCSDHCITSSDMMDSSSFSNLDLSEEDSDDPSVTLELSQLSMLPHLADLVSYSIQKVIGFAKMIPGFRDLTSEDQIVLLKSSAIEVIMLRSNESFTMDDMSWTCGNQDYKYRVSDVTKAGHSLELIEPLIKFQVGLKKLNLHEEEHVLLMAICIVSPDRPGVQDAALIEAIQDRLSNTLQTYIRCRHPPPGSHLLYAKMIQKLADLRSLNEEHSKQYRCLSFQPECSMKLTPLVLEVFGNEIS
Method: as §1

C[C@H](CCC(=O)O)[C@H]1CC[C@H]2[C@@H]3CC=C4C[C@@H](O)CC[C@]4(C)[C@H]3CC[C@]12C [3βH-Δ^5-BA, 3β-hydroxychol-5-en-24-oic acid]
Fxr activation, luciferase reporter (Fxr): also activated Fxr, but was less potent than CDCA

CC1=C(/C=C/C(C)=C\C=C\C(C)=C\C(=O)O)C(C)(C)CCC1 [9-cis-RA, 9-cis-retinoic acid]
DR5 (Nurr1/Rxr) luciferase reporter activation [1]: activated this reporter

C[C@H](CCC(=O)O)[C@H]1CC[C@H]2[C@@H]3CC[C@@H]4C[C@H](O)CC[C@]4(C)[C@H]3CC[C@]12C [LCA, lithocholic acid]
Vdr activation, luciferase reporter (Vdr): activated a vitamin D receptor (Vdr) luciferase reporter

Reference: patent US20190201419A1, “COMPOUND AND METHOD FOR THE TREATMENT AND DIAGNOSIS OF NEURODEGENERATIVE CONDITIONS” (Swansea University, priority 2013, published 2019)
